Laboratory results taken from the supplement of paper PMC12463676, “Small-molecule dissolution of stress granules by redox modulation benefits ALS models” (Nature Chemical Biology, 2025).

Tests used:
potassium arsenate = compound: O=[As]([O-])(O)O.[K+] [potassium arsenate]; experiment: thermal stability z-score vs DMSO; higher = more thermally stabilized by treatment; settings: HeLa; arsenate concentration 1 mM
Description: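 Cellular thermal proteome profiling in HeLa cells treated with 1 mM arsenate for 1 h (DMSO pretreatment), heated to ten temperatures (37-66.3 °C). Soluble protein was quantified by TMT mass spectrometry relative to DMSO controls; the thermal stability score was transformed to a z-score; mean of n = 3 experiments.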

lipoamide = compound: NC(=O)CCCCC1CCSS1 [lipoamide]; experiment: as above; settings: HeLa, lipoamide concentration 100 µM
Description: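 Cellular thermal proteome profiling in HeLa cells. Cells were treated with 100 µM lipoamide for 1 h, with or without 1 mM arsenate for a further 1 h, then heated to ten temperatures (37-66.3 °C), and soluble protein was quantified by TMT mass spectrometry relative to 0.1% DMSO controls. The thermal stability score (sum of log2 fold changes minus the abundance score) was transformed to a z-score; mean of n = 3 experiments.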

[1] = arsenate co-treatment: 1 mM arsenate 1 h
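Note: each temperature applied for 3 min, abundance score taken as mean log2 fold change at the two lowest temperatures, z-score obtained by mean subtraction and division by SD.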

RBM7 (UniProt Q9Y580)
UniProt Q9Y580, sequence (Q9Y580 whole entry): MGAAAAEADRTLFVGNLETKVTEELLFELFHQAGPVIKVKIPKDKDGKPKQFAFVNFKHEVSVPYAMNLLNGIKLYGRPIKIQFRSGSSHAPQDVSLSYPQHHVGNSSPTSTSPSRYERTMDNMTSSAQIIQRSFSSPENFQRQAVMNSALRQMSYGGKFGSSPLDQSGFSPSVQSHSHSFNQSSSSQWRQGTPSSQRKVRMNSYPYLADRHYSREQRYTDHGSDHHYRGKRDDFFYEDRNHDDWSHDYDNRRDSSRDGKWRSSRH
thermal stability z-score (potassium arsenate): 0.0182
thermal stability z-score (lipoamide; [1]): 0.00736
thermal stability z-score (lipoamide; arsenate co-treatment: none): 0.0818

TBCEL (UniProt Q5QJ74)
thermal stability z-score (potassium arsenate): 0.0212
thermal stability z-score (lipoamide; [1]): -0.202
thermal stability z-score (lipoamide; arsenate co-treatment: none): -0.0108

EED (UniProt O75530)
thermal stability z-score (potassium arsenate): -0.276
thermal stability z-score (lipoamide; [1]): 0.547
thermal stability z-score (lipoamide; arsenate co-treatment: none): 0.145

AMFR (UniProt Q9UKV5)
thermal stability z-score (potassium arsenate): 0.444
thermal stability z-score (lipoamide; [1]): -0.269
thermal stability z-score (lipoamide; arsenate co-treatment: none): -0.845

DNAJC21 (UniProt Q5F1R6)
thermal stability z-score (potassium arsenate): 0.00418
thermal stability z-score (lipoamide; [1]): -0.615
thermal stability z-score (lipoamide; arsenate co-treatment: none): -0.205

UCHL3 (UniProt P15374)
thermal stability z-score (potassium arsenate): -0.0572
thermal stability z-score (lipoamide; [1]): 0.844
thermal stability z-score (lipoamide; arsenate co-treatment: none): 0.126

TTC4 (UniProt O95801)
thermal stability z-score (potassium arsenate): -0.14
thermal stability z-score (lipoamide; [1]): -0.0544
thermal stability z-score (lipoamide; arsenate co-treatment: none): 0.0918

STT3B (UniProt Q8TCJ2)
UniProt Q8TCJ2, sequence (Q8TCJ2 whole entry): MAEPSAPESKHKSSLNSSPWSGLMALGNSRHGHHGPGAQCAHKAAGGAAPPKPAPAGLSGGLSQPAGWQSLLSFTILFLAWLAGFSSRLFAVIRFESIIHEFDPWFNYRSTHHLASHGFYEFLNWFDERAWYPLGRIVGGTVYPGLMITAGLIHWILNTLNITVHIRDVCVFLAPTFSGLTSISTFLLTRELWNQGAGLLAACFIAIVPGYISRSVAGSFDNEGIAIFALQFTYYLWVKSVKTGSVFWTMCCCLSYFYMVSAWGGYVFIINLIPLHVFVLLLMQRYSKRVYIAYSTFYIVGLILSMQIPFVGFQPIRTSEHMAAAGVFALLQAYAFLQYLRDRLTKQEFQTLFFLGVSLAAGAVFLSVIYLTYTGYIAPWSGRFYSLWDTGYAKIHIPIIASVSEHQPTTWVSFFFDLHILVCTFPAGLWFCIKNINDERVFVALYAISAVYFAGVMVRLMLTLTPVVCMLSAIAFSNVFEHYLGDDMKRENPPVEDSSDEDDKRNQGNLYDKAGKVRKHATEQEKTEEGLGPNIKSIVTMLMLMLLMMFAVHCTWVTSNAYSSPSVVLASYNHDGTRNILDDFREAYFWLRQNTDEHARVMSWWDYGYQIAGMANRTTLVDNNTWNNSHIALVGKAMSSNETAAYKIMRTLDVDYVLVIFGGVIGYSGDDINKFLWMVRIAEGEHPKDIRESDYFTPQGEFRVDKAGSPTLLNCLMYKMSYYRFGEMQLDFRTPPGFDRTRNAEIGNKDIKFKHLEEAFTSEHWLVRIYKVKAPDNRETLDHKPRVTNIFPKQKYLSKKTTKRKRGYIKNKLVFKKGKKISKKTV
thermal stability z-score (potassium arsenate): 0.646
thermal stability z-score (lipoamide; [1]): -3.41
thermal stability z-score (lipoamide; arsenate co-treatment: none): -2.66

NCOA4 (UniProt Q13772)
UniProt Q13772, sequence (Q13772 whole entry): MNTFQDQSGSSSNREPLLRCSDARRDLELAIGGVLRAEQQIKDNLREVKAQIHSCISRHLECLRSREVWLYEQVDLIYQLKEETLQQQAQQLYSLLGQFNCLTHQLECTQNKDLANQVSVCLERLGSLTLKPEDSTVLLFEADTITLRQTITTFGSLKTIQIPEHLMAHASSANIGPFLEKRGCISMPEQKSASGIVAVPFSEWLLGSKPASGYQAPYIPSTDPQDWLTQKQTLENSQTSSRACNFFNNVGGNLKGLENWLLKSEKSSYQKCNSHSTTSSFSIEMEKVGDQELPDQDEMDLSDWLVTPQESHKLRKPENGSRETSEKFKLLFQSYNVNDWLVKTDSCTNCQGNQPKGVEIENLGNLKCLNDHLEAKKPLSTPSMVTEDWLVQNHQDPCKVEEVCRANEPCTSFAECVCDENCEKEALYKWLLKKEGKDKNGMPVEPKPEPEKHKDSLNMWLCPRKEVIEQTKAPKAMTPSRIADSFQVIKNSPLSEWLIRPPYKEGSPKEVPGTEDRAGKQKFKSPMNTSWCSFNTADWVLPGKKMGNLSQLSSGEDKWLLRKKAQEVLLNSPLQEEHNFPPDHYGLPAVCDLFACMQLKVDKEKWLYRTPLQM
thermal stability z-score (potassium arsenate): -0.116
thermal stability z-score (lipoamide; [1]): -0.252
thermal stability z-score (lipoamide; arsenate co-treatment: none): 0.00243

PAIP1 (UniProt Q9H074)
thermal stability z-score (potassium arsenate): 0.0886
thermal stability z-score (lipoamide; [1]): 0.875
thermal stability z-score (lipoamide; arsenate co-treatment: none): 0.836

CLMP (UniProt Q9H6B4)
thermal stability z-score (potassium arsenate): -0.738
thermal stability z-score (lipoamide; [1]): 0.616
thermal stability z-score (lipoamide; arsenate co-treatment: none): 1.03

NUDCD3 (UniProt Q8IVD9)
thermal stability z-score (potassium arsenate): 0.339
thermal stability z-score (lipoamide; [1]): -0.592
thermal stability z-score (lipoamide; arsenate co-treatment: none): -0.183

NCAPD3 (UniProt P42695)
UniProt P42695, sequence (P42695 whole entry): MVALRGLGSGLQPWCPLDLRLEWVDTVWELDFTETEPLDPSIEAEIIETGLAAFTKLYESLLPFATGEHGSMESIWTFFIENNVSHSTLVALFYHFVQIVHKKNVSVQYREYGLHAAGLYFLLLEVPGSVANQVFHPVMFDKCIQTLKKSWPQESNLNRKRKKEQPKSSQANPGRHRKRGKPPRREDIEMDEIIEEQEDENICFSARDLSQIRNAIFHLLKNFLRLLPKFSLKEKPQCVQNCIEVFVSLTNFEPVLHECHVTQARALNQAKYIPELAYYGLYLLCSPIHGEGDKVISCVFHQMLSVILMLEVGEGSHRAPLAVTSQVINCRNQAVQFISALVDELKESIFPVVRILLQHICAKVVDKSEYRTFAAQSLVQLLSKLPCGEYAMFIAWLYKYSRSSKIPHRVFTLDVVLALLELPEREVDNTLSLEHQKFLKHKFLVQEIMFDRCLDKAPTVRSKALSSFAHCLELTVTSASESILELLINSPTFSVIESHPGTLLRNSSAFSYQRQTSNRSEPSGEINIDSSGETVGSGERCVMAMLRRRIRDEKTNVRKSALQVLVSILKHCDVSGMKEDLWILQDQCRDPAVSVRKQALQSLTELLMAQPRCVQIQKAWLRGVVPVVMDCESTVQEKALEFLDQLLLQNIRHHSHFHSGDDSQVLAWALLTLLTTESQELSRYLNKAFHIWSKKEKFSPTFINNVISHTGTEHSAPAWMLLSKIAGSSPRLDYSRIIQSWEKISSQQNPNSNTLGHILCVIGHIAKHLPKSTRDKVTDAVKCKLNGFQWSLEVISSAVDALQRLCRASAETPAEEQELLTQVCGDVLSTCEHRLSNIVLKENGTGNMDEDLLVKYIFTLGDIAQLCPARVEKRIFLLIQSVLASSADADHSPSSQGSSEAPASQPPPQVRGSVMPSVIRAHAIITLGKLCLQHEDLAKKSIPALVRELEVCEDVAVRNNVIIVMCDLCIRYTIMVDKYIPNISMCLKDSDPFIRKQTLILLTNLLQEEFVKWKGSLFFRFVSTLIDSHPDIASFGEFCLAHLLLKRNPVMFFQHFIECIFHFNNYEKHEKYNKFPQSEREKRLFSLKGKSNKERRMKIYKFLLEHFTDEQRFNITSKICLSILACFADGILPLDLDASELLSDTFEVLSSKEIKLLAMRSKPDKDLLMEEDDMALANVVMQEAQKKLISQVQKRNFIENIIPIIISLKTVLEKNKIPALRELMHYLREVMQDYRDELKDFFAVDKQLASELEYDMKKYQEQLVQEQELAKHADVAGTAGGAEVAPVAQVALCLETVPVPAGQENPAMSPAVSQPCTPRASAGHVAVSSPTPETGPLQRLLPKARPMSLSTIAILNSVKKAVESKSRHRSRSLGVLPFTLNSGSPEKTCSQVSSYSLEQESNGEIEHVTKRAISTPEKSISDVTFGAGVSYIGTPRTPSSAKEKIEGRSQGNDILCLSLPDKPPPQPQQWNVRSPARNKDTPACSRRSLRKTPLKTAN
thermal stability z-score (potassium arsenate): 0.161
thermal stability z-score (lipoamide; [1]): 0.394
thermal stability z-score (lipoamide; arsenate co-treatment: none): 0.105

GLRX5 (UniProt Q86SX6)
UniProt Q86SX6, sequence (Q86SX6 whole entry): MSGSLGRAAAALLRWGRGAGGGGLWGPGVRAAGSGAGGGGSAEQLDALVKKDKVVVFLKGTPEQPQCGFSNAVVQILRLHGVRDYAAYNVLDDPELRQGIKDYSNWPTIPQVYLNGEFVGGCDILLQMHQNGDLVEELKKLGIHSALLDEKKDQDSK
thermal stability z-score (potassium arsenate): -0.462
thermal stability z-score (lipoamide; [1]): 1.13
thermal stability z-score (lipoamide; arsenate co-treatment: none): -0.225

HCCS (UniProt P53701)
UniProt P53701, sequence (P53701 whole entry): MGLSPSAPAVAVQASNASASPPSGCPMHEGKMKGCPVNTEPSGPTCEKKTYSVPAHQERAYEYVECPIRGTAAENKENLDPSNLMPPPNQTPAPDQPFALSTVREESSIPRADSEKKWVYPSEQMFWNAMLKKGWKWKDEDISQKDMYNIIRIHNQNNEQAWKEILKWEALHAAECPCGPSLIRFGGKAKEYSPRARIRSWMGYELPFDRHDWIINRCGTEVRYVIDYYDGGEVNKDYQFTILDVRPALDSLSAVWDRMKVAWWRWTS
thermal stability z-score (potassium arsenate): -0.0765
thermal stability z-score (lipoamide; [1]): -0.0583
thermal stability z-score (lipoamide; arsenate co-treatment: none): -0.124

GABPA (UniProt Q06546)
thermal stability z-score (potassium arsenate): 4.54
thermal stability z-score (lipoamide; [1]): -0.201
thermal stability z-score (lipoamide; arsenate co-treatment: none): -0.185

GOSR1 (UniProt O95249)
thermal stability z-score (potassium arsenate): -0.0465
thermal stability z-score (lipoamide; [1]): 0.726
thermal stability z-score (lipoamide; arsenate co-treatment: none): 0.473

IMP3 (UniProt Q9NV31)
UniProt Q9NV31, sequence (Q9NV31 whole entry): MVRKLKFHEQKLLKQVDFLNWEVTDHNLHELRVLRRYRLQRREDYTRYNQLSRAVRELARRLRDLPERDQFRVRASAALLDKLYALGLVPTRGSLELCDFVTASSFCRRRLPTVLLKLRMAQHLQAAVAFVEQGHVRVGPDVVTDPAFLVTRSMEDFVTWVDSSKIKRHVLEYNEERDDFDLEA
thermal stability z-score (potassium arsenate): 0.389
thermal stability z-score (lipoamide; [1]): -0.323
thermal stability z-score (lipoamide; arsenate co-treatment: none): -0.228

QTRTD1 (UniProt Q9H974)
thermal stability z-score (potassium arsenate): -0.765
thermal stability z-score (lipoamide; [1]): 0.678
thermal stability z-score (lipoamide; arsenate co-treatment: none): -0.447

MTDH (UniProt Q86UE4)
thermal stability z-score (potassium arsenate): -1.35
thermal stability z-score (lipoamide; [1]): -0.531
thermal stability z-score (lipoamide; arsenate co-treatment: none): -0.503

KCNAB2 (UniProt Q13303)
thermal stability z-score (potassium arsenate): 0.237
thermal stability z-score (lipoamide; [1]): 0.221
thermal stability z-score (lipoamide; arsenate co-treatment: none): 0.281

RAB1A (UniProt P62820)
thermal stability z-score (potassium arsenate): 0.312
thermal stability z-score (lipoamide; [1]): 0.28
thermal stability z-score (lipoamide; arsenate co-treatment: none): 0.338

NIT1 (UniProt Q86X76)
thermal stability z-score (potassium arsenate): 0.439
thermal stability z-score (lipoamide; [1]): 0.836
thermal stability z-score (lipoamide; arsenate co-treatment: none): 0.924

NEURL4 (UniProt Q96JN8)
thermal stability z-score (potassium arsenate): 0.00875
thermal stability z-score (lipoamide; [1]): -0.125
thermal stability z-score (lipoamide; arsenate co-treatment: none): 0.0814

SDHAF4 (UniProt Q5VUM1)
thermal stability z-score (potassium arsenate): -1.53
thermal stability z-score (lipoamide; [1]): 0.0401
thermal stability z-score (lipoamide; arsenate co-treatment: none): -0.258

EHBP1L1 (UniProt Q8N3D4)
thermal stability z-score (potassium arsenate): -0.3
thermal stability z-score (lipoamide; [1]): -0.423
thermal stability z-score (lipoamide; arsenate co-treatment: none): -0.0281

SLC19A1 (UniProt P41440)
thermal stability z-score (potassium arsenate): 0.0431
thermal stability z-score (lipoamide; [1]): -0.381
thermal stability z-score (lipoamide; arsenate co-treatment: none): -0.505

BIN3 (UniProt Q9NQY0)
thermal stability z-score (potassium arsenate): -0.201
thermal stability z-score (lipoamide; [1]): -0.115
thermal stability z-score (lipoamide; arsenate co-treatment: none): -0.19

RPL32 (UniProt P62910)
thermal stability z-score (potassium arsenate): -0.93
thermal stability z-score (lipoamide; [1]): 0.158
thermal stability z-score (lipoamide; arsenate co-treatment: none): -0.028

PSMD1 (UniProt Q99460)
thermal stability z-score (potassium arsenate): 0.245
thermal stability z-score (lipoamide; [1]): 0.651
thermal stability z-score (lipoamide; arsenate co-treatment: none): 0.343

MRPS16 (UniProt Q9Y3D3)
thermal stability z-score (potassium arsenate): 0.0354
thermal stability z-score (lipoamide; [1]): -0.314
thermal stability z-score (lipoamide; arsenate co-treatment: none): -0.201

TKFC (UniProt Q3LXA3)
thermal stability z-score (potassium arsenate): -0.753
thermal stability z-score (lipoamide; [1]): 0.239
thermal stability z-score (lipoamide; arsenate co-treatment: none): 0.23

SDR39U1 (UniProt Q9NRG7)
thermal stability z-score (potassium arsenate): 0.471
thermal stability z-score (lipoamide; [1]): 0.717
thermal stability z-score (lipoamide; arsenate co-treatment: none): 0.0552

HSDL2 (UniProt Q6YN16)
thermal stability z-score (potassium arsenate): 0.41
thermal stability z-score (lipoamide; [1]): 0.183
thermal stability z-score (lipoamide; arsenate co-treatment: none): 0.156

PDCD11 (UniProt Q14690)
thermal stability z-score (potassium arsenate): -0.125
thermal stability z-score (lipoamide; [1]): -0.0446
thermal stability z-score (lipoamide; arsenate co-treatment: none): -0.334

COPA (UniProt P53621)
thermal stability z-score (potassium arsenate): 0.594
thermal stability z-score (lipoamide; [1]): -0.0346
thermal stability z-score (lipoamide; arsenate co-treatment: none): 0.0865

DNAJC3 (UniProt Q13217)
thermal stability z-score (potassium arsenate): 0.823
thermal stability z-score (lipoamide; [1]): -4.01
thermal stability z-score (lipoamide; arsenate co-treatment: none): -3.61

VRK1 (UniProt Q99986)
thermal stability z-score (potassium arsenate): -0.267
thermal stability z-score (lipoamide; [1]): 0.263
thermal stability z-score (lipoamide; arsenate co-treatment: none): 0.423

HPS5 (UniProt Q9UPZ3)
thermal stability z-score (potassium arsenate): -0.219
thermal stability z-score (lipoamide; [1]): -0.0872
thermal stability z-score (lipoamide; arsenate co-treatment: none): 0.00734

TRMT10C (UniProt Q7L0Y3)
thermal stability z-score (potassium arsenate): 0.226
thermal stability z-score (lipoamide; [1]): -0.602
thermal stability z-score (lipoamide; arsenate co-treatment: none): -0.191

STRBP (UniProt Q96SI9)
thermal stability z-score (potassium arsenate): 0.571
thermal stability z-score (lipoamide; [1]): 0.867
thermal stability z-score (lipoamide; arsenate co-treatment: none): 0.71

RPL37A (UniProt P61513)
thermal stability z-score (potassium arsenate): -0.29
thermal stability z-score (lipoamide; [1]): 0.766
thermal stability z-score (lipoamide; arsenate co-treatment: none): 0.392

FZD6 (UniProt O60353)
thermal stability z-score (potassium arsenate): 0.376
thermal stability z-score (lipoamide; [1]): -1.56
thermal stability z-score (lipoamide; arsenate co-treatment: none): -1.7

ABCG2 (UniProt Q9UNQ0)
thermal stability z-score (potassium arsenate): 1.12
thermal stability z-score (lipoamide; [1]): 0.0159
thermal stability z-score (lipoamide; arsenate co-treatment: none): -0.208

PAGR1 (UniProt Q9BTK6)
UniProt Q9BTK6, sequence (Q9BTK6 whole entry): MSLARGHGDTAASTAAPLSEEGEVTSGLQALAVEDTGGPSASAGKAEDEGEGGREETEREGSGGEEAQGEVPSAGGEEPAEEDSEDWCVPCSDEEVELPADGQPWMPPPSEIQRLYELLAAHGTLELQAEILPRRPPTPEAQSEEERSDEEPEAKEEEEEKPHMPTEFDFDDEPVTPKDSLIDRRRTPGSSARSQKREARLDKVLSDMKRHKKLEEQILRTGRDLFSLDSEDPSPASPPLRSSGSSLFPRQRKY
thermal stability z-score (potassium arsenate): -0.194
thermal stability z-score (lipoamide; [1]): 0.263
thermal stability z-score (lipoamide; arsenate co-treatment: none): -0.446

BCAR1 (UniProt P56945)
thermal stability z-score (potassium arsenate): -0.154
thermal stability z-score (lipoamide; [1]): -0.559
thermal stability z-score (lipoamide; arsenate co-treatment: none): -0.583

PEX11B (UniProt O96011)
UniProt O96011, sequence (O96011 whole entry, change not shown): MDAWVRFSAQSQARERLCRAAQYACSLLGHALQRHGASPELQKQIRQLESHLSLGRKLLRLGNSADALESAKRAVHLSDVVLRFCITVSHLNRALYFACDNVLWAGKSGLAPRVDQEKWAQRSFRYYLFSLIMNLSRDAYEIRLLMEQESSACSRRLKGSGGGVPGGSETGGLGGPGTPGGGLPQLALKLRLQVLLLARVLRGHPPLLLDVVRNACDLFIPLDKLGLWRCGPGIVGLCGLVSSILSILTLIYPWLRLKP
thermal stability z-score (potassium arsenate): -0.497
thermal stability z-score (lipoamide; [1]): -0.443
thermal stability z-score (lipoamide; arsenate co-treatment: none): -0.349

FADD (UniProt Q13158)
thermal stability z-score (potassium arsenate): 0.325
thermal stability z-score (lipoamide; [1]): -0.805
thermal stability z-score (lipoamide; arsenate co-treatment: none): 0.901

CAD (UniProt P27708)
thermal stability z-score (potassium arsenate): -0.201
thermal stability z-score (lipoamide; [1]): -0.284
thermal stability z-score (lipoamide; arsenate co-treatment: none): -1.08

NSUN5 (UniProt Q96P11)
thermal stability z-score (potassium arsenate): 0.136
thermal stability z-score (lipoamide; [1]): 0.469
thermal stability z-score (lipoamide; arsenate co-treatment: none): -0.155

GPX4 (UniProt P36969)
thermal stability z-score (potassium arsenate): 0.286
thermal stability z-score (lipoamide; [1]): -0.524
thermal stability z-score (lipoamide; arsenate co-treatment: none): -0.696

ENG (UniProt P17813)
UniProt P17813, sequence (P17813 whole entry): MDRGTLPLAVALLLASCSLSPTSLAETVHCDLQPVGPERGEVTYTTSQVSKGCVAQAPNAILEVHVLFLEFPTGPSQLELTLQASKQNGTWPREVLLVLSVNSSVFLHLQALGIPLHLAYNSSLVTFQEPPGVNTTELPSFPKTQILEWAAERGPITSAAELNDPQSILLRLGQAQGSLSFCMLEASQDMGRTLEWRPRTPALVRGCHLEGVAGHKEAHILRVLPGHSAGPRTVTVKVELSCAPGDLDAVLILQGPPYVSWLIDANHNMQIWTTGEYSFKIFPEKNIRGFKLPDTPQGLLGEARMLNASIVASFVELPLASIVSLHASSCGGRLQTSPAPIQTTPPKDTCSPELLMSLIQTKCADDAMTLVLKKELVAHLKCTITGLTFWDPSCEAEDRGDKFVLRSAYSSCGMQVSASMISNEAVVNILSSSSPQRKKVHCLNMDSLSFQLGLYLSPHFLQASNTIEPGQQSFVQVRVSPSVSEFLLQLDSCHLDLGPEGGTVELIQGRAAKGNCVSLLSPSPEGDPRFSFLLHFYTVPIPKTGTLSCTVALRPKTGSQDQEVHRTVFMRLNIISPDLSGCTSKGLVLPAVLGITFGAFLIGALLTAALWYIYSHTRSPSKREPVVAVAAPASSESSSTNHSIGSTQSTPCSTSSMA
thermal stability z-score (potassium arsenate): 0.478
thermal stability z-score (lipoamide; [1]): -0.721
thermal stability z-score (lipoamide; arsenate co-treatment: none): -0.506

SFPQ (UniProt P23246)
thermal stability z-score (potassium arsenate): 1.15
thermal stability z-score (lipoamide; [1]): 2.47
thermal stability z-score (lipoamide; arsenate co-treatment: none): 2.22

ARFRP1 (UniProt Q13795)
thermal stability z-score (potassium arsenate): -0.148
thermal stability z-score (lipoamide; [1]): 0.241
thermal stability z-score (lipoamide; arsenate co-treatment: none): 0.279

GNB1 (UniProt P62873)
thermal stability z-score (potassium arsenate): -0.776
thermal stability z-score (lipoamide; [1]): 0.979
thermal stability z-score (lipoamide; arsenate co-treatment: none): 0.0629
